{"source": "patent US20200023206A1", "about": "“SYSTEMS AND METHODS FOR ULTRASOUND MODULATION OF NEURONS” (THE TRUSTEES OF COLUMBIA UNIVERSITY IN THE CITY OF NEW YORK, priority 2016, published 2020)", "key": {"[1]": {"system": "ultrasound-induced whole-cell currents in HEK cells", "assay": "Ruthenium red on ultrasound-induced whole-cell currents (patch clamp, Chamber B+laser)", "format": "cell-based", "details": "RR 10 μM", "description": "FIGS. 20A-20D are diagrams illustrating ruthenium red (RR) on ultrasound (US)-induced currents. FIG. 20A illustrates representative examples of ultrasound-induced currents before (control), during (ruthenium red), and after (washout) RR treatment (black, first stimulus; blue, second; red, third). As embodied herein, cell was held at −90 mV. Ultrasound stimulation parameters were 3.1 MHz, 1.6 MPa, 25 μs, 1 stimulus, 30 s intervals. FIG. 20B illustrates additional representative examples of ultrasound-induced currents with RR treatment. As embodied herein, cell was held at −90 mV. Ultrasound stimulation parameters were the same as FIG. 20A, except the pressure was 1.27 MPa. FIG. 20C illustrates a summary of the drug effects of ruthenium red on ultrasound-induced currents (N=5 cells). As embodied herein, responses to three stimulus presentations per condition were averaged and normalized to the mean amplitude in the control condition for each cell. Experiments were done at −70 mV or −90 mV holding potential. FIG. 20D illustrates HEK cells grouped into two populations according to ultrasound activation thresholds and ruthenium red sensitivity.\nFor purpose of illustration and not limitation, as embodied herein, system 1700 can be used to measure the pharmacological profile of the ultrasound-induced currents in HEK cells. Ruthenium red (RR) can be used to block non-selective cation channels, including the mechanically activated ion channels Piezol, Piezo2, as well as some TRP channels (TRPA1, TRPV3, TRPV4, TRPV5, TRPV6). As embodied herein, RR (10 μM) can block ultrasound-induced whole-cell currents in HEK cells. For example and not limitation, as embodied herein, each cell was stimulated with ultrasound five times at both −90 mV (or −70 mV) and +30 mV (or +50 mV) alternatively. The same stimulation was applied 10 minutes after RR wash-in and 10 minutes after the RR washout, respectively. […]"}, "[2]": {"system": "ultrasound-induced currents in HEK cells", "assay": "Sodium substitution with NMDG on ultrasound-induced currents (patch clamp)", "format": "cell-based", "details": "N=5 cells", "description": "FIGS. 21A-21B are diagrams illustrating exemplary effects of sodium substitution with N-methyl-d-glucamine (NMDG) on ultrasound-induced currents. FIG. 21A illustrates representative examples of ultrasound-induced currents in control solution (Ringers), NMDG-Ringers (without sodium), and in Ringers washout (black, first stimulus; blue, second; red, third). As embodied herein, the cell was held at −90 mV. Ultrasound stimulation parameters were 3.1 MHz, 1.88 MPa, 25 μs, 1 stimulus, 30 s intervals. FIG. 21B illustrates NMDG substitution on ultrasound-induced currents (N=5 cells). As embodied herein, responses to three stimulus presentations per condition were averaged and normalized to the mean amplitude in the control condition for each cell. Cells were held at −90 mV. […] Additionally or alternatively, and as embodied herein, an extracellular cation, such as sodium, can be used to mediate US-induced inward currents. For example and not limitation, as embodied herein, cells were stimulated with US, first in Ringers solution (with sodium), then in an N-methyl-d-glucamine (NMDG)-based Ringer solution (without sodium). NMDG can be utilized at least in part because most mammalian cation channels can be impermeable to this large cation. As embodied herein, each cell was stimulated with US five times at −90 and +30 mV alternatively. The same stimuli were applied 10 minutes following NMDG replacement of sodium and 10 minutes following washout with Ringers (with sodium). […] The first three responses were used to calculate the mean amplitude of the responses in each condition. With reference to FIGS. 21A and 21B, in 4/5 cells, a reduction in US-activated currents with NMDG substitution was shown; however, in most cases, the effect was not reversible, as shown for example in FIG. 21B. This can be due at least in part because NMDG was not effectively washed out of chamber during the washout period (˜10 minutes). Additionally or alternatively, the lack of reversibility can indicate cellular rundown over the course of the stimulations."}}, "note": "Where “and” joins values, the source holds several entries; their conditions need not be identical. Equal values may be shown once. Entries after “also recorded” stand apart in the source; their conditions may differ.", "data": [{"compound": "N.N.N.N.N.N.N.N.N.N.N.N.N.N.[Cl-].[Cl-].[Cl-].[Cl-].[Cl-].[Cl-].[O-2].[O-2].[Ru+3].[Ru+3].[Ru+4]", "note": "[RR, Ruthenium red]", "values": [{"measurement": "effect on ultrasound-induced whole-cell currents", "setting": "[1]; 10 minutes after wash-in, held at -90 mV or -70 mV, N=5 cells", "value": "can block; also recorded: varying effects"}, {"measurement": "number of cells showing enhanced US-induced currents in the presence of RR", "setting": "[1]; N=5 cells analysed", "value": "two"}, {"measurement": "number of cells showing reduced US-evoked currents in the presence of RR", "setting": "[1]; N=5 cells analysed", "value": "Three"}]}, {"compound": "CNC[C@H](O)[C@@H](O)[C@H](O)[C@H](O)CO", "note": "[NMDG, N-methyl-d-glucamine]", "values": [{"measurement": "cells showing reduction in US-activated currents with NMDG substitution", "setting": "[2]; NMDG-Ringers without sodium, 10 minutes after replacement, held at -90 mV", "value": "Four and 4/5"}, {"measurement": "cells showing increased response following NMDG replacement", "setting": "[2]; NMDG-Ringers without sodium, held at -90 mV", "value": "one"}, {"measurement": "effect of replacement of sodium with NMDG on ultrasound-induced currents", "setting": "[2]; un-normalized data, P=0.16 paired t test, -90 mV", "value": "did not show significant effect"}]}]}
